Test results reported in patent publication US10919785B2, “Hydraulic conveyor of floating objects provided with a device for sanitising conveying composition, plant provided with such a conveyor and sanitising method” (MAF AGROBOTIC, priority 2016, dated 2021).
Where two headings read alike, the source gives them in different places.

Legend:
[1] = type: physicochemical
Protocol: A hydraulic conveyor of a plant for sorting and packaging apples is selected containing a volume of 90 m^3 of a conveying composition containing “BELLIS” at a concentration of 50 m g/l (and boscalid at a concentration of 22 μg/l). A flow rate of the conveying composition of 36 m^3/h is established in the external circuit using the circulation pump 14 and a flow rate of photoreactive composition of 270 cm^3/h is established using the distribution pump 19, the photoreactive composition being an aqueous solution of hydrogen peroxide at an initial concentration of 400 g/l, i.e. 108 g or pure hydrogen peroxide. Under these conveying composition flow conditions, all of the volume of the conveying composition contained in the plant is theoretically treated within 2.5 hours. The composition to be sanitised obtained at the inlet of the sanitising device thus has an initial hydrogen peroxide proportion in the order of 3 ppm and is sufficient to allow the decontamination of the composition to be sanitised at the outlet of the sanitising device formed of 6 photolysis chambers mounted in series, each chamber comprising five fluorescent tubes with an individual power of 200 W.
The results obtained are shown in Table 1 hereinafter in which the concentration values of boscalid in the composition to be sanitised at the inlet of the photolysis tank (EC), at the outlet of the third chamber (S3E) of the photolysis tank and at the outlet of the sixth chamber (S6E) of the photolysis tank are given in μg/l. The column S6E/EC represents the ratio multiplied by 100 of the boscalid concentration at the outlet of the sixth chamber (S6E) of the photolysis tank to the boscalid concentration at the inlet of the photolysis tank (EC). The column C/C0 represents the ratio of the boscalid concentration measured at the inlet of the photolysis tank over time to the initial boscalid concentration (t=0).

[2] = type: physicochemical; details: 10 min, 25 μg/l
Source text: The semi-industrial pilot device comprises a tank for composition to be treated of a volume of 1000 l, a circulation pump ensuring a flow of composition to be treated in a sanitising device with a flow rate of 6 m^3/h. The sanitising device comprises a single photolysis chamber comprising an inlet for water from the tank of composition to be treated and an outlet for sanitised water directed to the tank of composition to be treated. The composition to be treated comprises boscalid at an initial concentration of 25 μg/l and an initial hydrogen peroxide concentration of 2 mg/l.
The photolysis chamber is formed of a rigid tubular envelope, of which the external wall is opaque to light and forming an inner space suitable for receiving five fluorescent tubes with a longitudinal axis extending in parallel with the longitudinal axis of the rigid tubular envelope. The inner volume of the decontamination reactor is in the order of 32 l. The five fluorescent tubes are tubes of 200 W emitting light at a wavelength of 254 nm and arranged longitudinally in the tubular envelope at the five points of a regular pentagon and in contact with the water to be treated flowing in the photolysis chamber.
After 10 minutes of operation of the semi-industrial pilot device, almost all of the composition to be treated has been illuminated in the photolysis chamber. […]

[3] = type: physicochemical; details: 19 seconds
Source text: A hydraulic conveyor of a plant for sorting and packaging apples containing a volume of 90 m^3 of water as composition for conveying Ariane, Rosy Glow and Pink Lady apples comprises a sanitising device in accordance with the invention formed of six photolysis chambers mounted in series, each chamber comprising five fluorescent tubes having an individual power of 200 W. The flow rate of the composition for conveying apples in the sanitising device is 36 m^3/h. It has been observed that the plurality of photolysis chambers mounted in series allows a rate of degradation of 96% of the initial boscalid to be achieved with a flow rate of the composition to be treated of 36 m^3/h and for an average residence time of the conveying composition in the sanitising device in the order of 19 seconds.

O=C(Nc1ccccc1-c1ccc(Cl)cc1)c1cccnc1Cl [boscalid]
rate of degradation between the inlet and outlet of the photolysis tank ([1]; 22 μg/l): greater than 90%
boscalid concentration at the inlet of the photolysis tank (EC) ([1]; time 0 hours): 21.43 µg/L
C/C0 (inlet boscalid concentration over initial concentration) ([1]; time 1.25 hours): 0.79
S6E/EC ([1]; time 1.25 hours): 92%
boscalid concentration at the inlet of the photolysis tank (EC) ([1]; time 1.25 hours): 16.64 µg/L
boscalid concentration at the outlet of the sixth chamber (S6E) ([1]; time 1.25 hours): 1.28 µg/L
C/C0 (inlet boscalid concentration over initial concentration) ([1]; time 2.5 hours): 0.73
S6E/EC ([1]; time 2.5 hours): 94%
boscalid concentration at the inlet of the photolysis tank (EC) ([1]; time 2.5 hours): 15.68 µg/L
boscalid concentration at the outlet of the sixth chamber (S6E) ([1]; time 2.5 hours): 0.99 µg/L
boscalid concentration at the outlet of the third chamber (S3E) ([1]; time 2.5 hours): 3.96 µg/L
C/C0 (inlet boscalid concentration over initial concentration) ([1]; time 3.75 hours): 0.73
S6E/EC ([1]; time 3.75 hours): 94%
boscalid concentration at the inlet of the photolysis tank (EC) ([1]; time 3.75 hours): 15.56 µg/L
boscalid concentration at the outlet of the sixth chamber (S6E) ([1]; time 3.75 hours): 0.91 µg/L
boscalid concentration at the outlet of the third chamber (S3E) ([1]; time 3.75 hours): 3.38 µg/L
C/C0 (inlet boscalid concentration over initial concentration) ([1]; time 5 hours): 0.66
S6E/EC ([1]; time 5 hours): 94%
boscalid concentration at the inlet of the photolysis tank (EC) ([1]; time 5 hours): 14.06 µg/L
boscalid concentration at the outlet of the sixth chamber (S6E) ([1]; time 5 hours): 0.56 µg/L
boscalid concentration at the outlet of the third chamber (S3E) ([1]; time 5 hours): 2.71 µg/L
C/C0 (inlet boscalid concentration over initial concentration) ([1]; time 7.5 hours): 0.38
boscalid concentration at the inlet of the photolysis tank (EC) ([1]; time 7.5 hours): 8.25 µg/L
boscalid concentration at the outlet of the third chamber (S3E) ([1]; time 7.5 hours): 1.78 µg/L
elimination from the conveying composition of the hydraulic conveyor ([1]; within 7.5 hours): 62%
rate of degradation of the initial boscalid [2]: 58%
rate of degradation of the initial boscalid [3]: 96%
